Patent US8709764B2, “Enzymatic demethylation of flavonoids” (Universiteit Gent, priority 2005, dated 2014)

System: selected strain Eubacterium limosum
Test: Fed batch fermentation of IX with selected Eubacterium limosum strain
Assay type: in vitro ADME
Conditions: fermentor effluent
Protocol: A fed batch fermentation experiment was designed to use a selected strain Eubacterium limosum as obtained above, to convert methylated prenylflavonoids in a fermentation setting. Fermentation was performed in a Braun Biostat® M fermentor (2 l vessel), filled with 1.5 L Brain Heart Infusion broth (with 0.5 g/l cystein-HCl). Subsequently, the fermentor was sterilized by autoclaving it for 30 min at 121° C. Before inoculation, the fermentor was made anaerobic by flushing the system for 1 h with nitrogen gas. After this, the fermentor was inoculated with a 2-days old E. limosum culture and 25 mg/L IX was added to the fermentation liquid. The fermentation was performed at 37° C. for 2 weeks, without pH control. From day 1 on, three times/day 200 ml anaerobic Brain Heart Infusion broth (with 0.5 g/l cystein-HCl), containing 25 mg/L IX was dosed to the reactor at 10 ml/min and simultaneously […] fermentor content was removed from the system. A 10 ml sample was taken from the effluent, for chemical analysis. This was done at day 0, 1, 2 and afterwards every 2 days. Data were as % conversion (8-PN/(IX+8-PN)). A conversion of 0% (day 0), 43% (day 1) and 100% (day 2 and following days), of IX into 8-PN was obtained.

Compound: COc1cc(O)c(CC=C(C)C)c2c1C(=O)C[C@@H](c1ccc(O)cc1)O2 [IX, 5-O-methyl-8-prenylnaringenin]
- % conversion (8-PN/(IX+8-PN)) (day 0): 0%
- % conversion (8-PN/(IX+8-PN)) (day 1): 43%
- % conversion (8-PN/(IX+8-PN)) (day 2 and following days): 100%
